Experimental data: ChEMBL document CHEMBL5360646, “Optimization of M3 Antagonist-PDE4 Inhibitor (MAPI) Dual Pharmacology Molecules for the Treatment of COPD” (J Med Chem, 2023)

Experiments:
[1] = target: Muscarinic acetylcholine receptor M3 (Homo sapiens, UniProt P20309); experiment: Displacement of [3H]N-methylscopolamine chloride from human muscarinic M3 receptor incubated for 2 hrs by radioligand binding assay
Trachea = experiment: Bronchoconstriction activity in Sprague-Dawley rat trachea assessed as inhibition of carbachol-induced tracheal contraction; type: functional, tissue-based; conditions: for IC50: Rattus norvegicus, Sprague-Dawley, Trachea
[2] = target: 3',5'-cyclic-AMP phosphodiesterase 4B (Homo sapiens, UniProt Q07343); experiment: Inhibition of human recombinant PDE4B2 expressed in baculovirus expression system using cAMP as substrate incubated for 2 hrs by HTRF assay
[3] = Antiinflammatory activity against LPS-stimulated human PBMC cells assessed reduction in TNFalpha level incubated for 18 hrs by ELISA analysis; type: functional, cell-based; conditions: for IC50: Homo sapiens, PBMC, 18 h; for pIC50: pbmc
Rattus norvegicus [4] = experiment: Anti-bronchospastic activity in carbachol-induced bronchospasm Sprague-Dawley rat model assessed as inhibition of carbachol-induced bronchoconstriction administered IT(Intratracheal) for 1 hr prior to carbachol challenge; type: functional
Rattus norvegicus [5] = experiment: Anti-bronchospastic activity in carbachol-induced bronchospasm Sprague-Dawley rat model assessed as inhibition of carbachol-induced bronchoconstriction at 10 nmol/kg, IT(Intratracheal) administered 1 hr prior to carbachol challenge; type: functional; design: scale not given: the % may be the effect or the level left
Rattus norvegicus [6] = experiment: Anti-bronchospastic activity in carbachol-induced bronchospasm Sprague-Dawley rat model assessed as inhibition of carbachol-induced bronchoconstriction at 10 nmol/kg, IT(Intratracheal) administered 16 hr prior to carbachol challenge; type: functional; design: scale not given: the % may be the effect or the level left
Rattus norvegicus [7] = experiment: Anti-inflammatory activity against OVA-sensitized Brown-Norway rat airway inflammation model assessed as inhibition of OVA-induced eosinophil influx administered IT(Intratracheal) 2 hrs prior to OVA challenge; type: functional
[8] = Ratio of ED50 for Anti-inflammatory activity against OVA-sensitized Brown-Norway rat airway inflammation model to ED50 for Anti-bronchospastic activity in carbachol-induced bronchospasm Sprague-Dawley rat model; type: functional
[9] = Metabolic stability in human lung S9 fraction assessed as half life at 1 uM and measured upto 60 mins in presence of NADPH by LC-MS/MS analysis; type: ADME, subcellular; conditions: for half-life at 1 µM: lung S9 fraction; for t1/2: s9, 1 h, 1 µM, 1 h
[10] = Metabolic stability in rat lung S9 fraction assessed as half life at 1 uM and measured upto 60 mins in presence of NADPH by LC-MS/MS analysis; type: ADME, subcellular; conditions: for half-life at 1 µM: lung S9 fraction; for t1/2: s9, 1 h, 1 µM, 1 h
[11] = Metabolic stability in human plasma assessed as half life at 5 uM and measured upto 180 mins by HPLC-MS/MS analysis; type: ADME, cell-free
[12] = Metabolic stability in rat plasma assessed as half life at 5 uM and measured upto 180 mins by HPLC-MS/MS analysis; type: ADME, cell-free; conditions: for t1/2: 3 h, 5 µM
[13] = Metabolic stability in human liver microsomes assessed as intrinsic clerance at 1 uM and measured upto 60 mins by HPLC-MS/MS analysis; type: ADME, Microsome; conditions: for microsomal CLint at 1 µM: liver microsomes, read-out: CLH; for CLH: microsomes, 1 h, 1 µM
[14] = Metabolic stability in rat liver microsomes assessed as intrinsic clerance at 1 uM and measured upto 60 mins by HPLC-MS/MS analysis; type: ADME, Microsome; conditions: for CLH: microsomes, 1 h, 1 µM
Rattus norvegicus [15] = experiment: Anti-bronchospastic activity in carbachol-induced bronchospasm Sprague-Dawley rat model assessed as inhibition of carbachol-induced bronchoconstriction at 3 nmol/kg, IT(Intratracheal) administered 1 hr prior to carbachol challenge; type: functional; design: scale not given: the % may be the effect or the level left
Rattus norvegicus [16] = experiment: Anti-bronchospastic activity in carbachol-induced bronchospasm Sprague-Dawley rat model assessed as inhibition of carbachol-induced bronchoconstriction at 3 nmol/kg, IT(Intratracheal) administered 16 hr prior to carbachol challenge; type: functional; design: scale not given: the % may be the effect or the level left
[17] = Antiinflammatory activity against LPS-stimulated rat PBMC cells assessed reduction in TNFalpha level incubated for 18 hrs by ELISA analysis; type: functional, cell-based
Rattus norvegicus [18] = experiment: Anti-bronchospastic activity in carbachol-induced bronchospasm Sprague-Dawley rat model assessed as inhibition of carbachol-induced bronchoconstriction at 30 nmol/kg, IT(Intratracheal) administered 1 hr prior to carbachol challenge; type: functional; design: scale not given: the % may be the effect or the level left
Rattus norvegicus [19] = experiment: Anti-bronchospastic activity in carbachol-induced bronchospasm Sprague-Dawley rat model assessed as inhibition of carbachol-induced bronchoconstriction at 30 nmol/kg, IT(Intratracheal) administered 16 hr prior to carbachol challenge; type: functional; design: scale not given: the % may be the effect or the level left
Rattus norvegicus [20] = experiment: Anti-inflammatory activity against OVA-sensitized Brown-Norway rat airway inflammation model assessed as inhibition of OVA-induced eosinophil influx at 100 nmol/kg,IT(Intratracheal) pretreated 2 hrs prior to OVA challenge by automated cell counter analysis; type: functional; design: scale not given: the % may be the effect or the level left
Rattus norvegicus [21] = experiment: Anti-inflammatory activity against OVA-sensitized Brown-Norway rat airway inflammation model assessed as inhibition of OVA-induced eosinophil influx at 1000 nmol/kg,IT(Intratracheal) pretreated 24 hrs prior to OVA challenge and measured after 48 hrs by automated cell counter analysis; type: functional; design: scale not given: the % may be the effect or the level left; conditions: time 72 hrs
[22] = Toxicity in ferret assessed as appearance of nausea-like behavior at 10 nmol/kg, IT(Intratracheal) and measured for 4 hrs by behavioral analysis; design: species or system Mustela putorius furo; conditions: in vivo, inhaled_or_intranasal
[23] = Toxicity in ferret assessed as emetic response at 10 nmol/kg, IT(Intratracheal) and measured for 4 hrs by behavioral analysis; design: species or system Mustela putorius furo; conditions: in vivo, inhaled_or_intranasal
[24] = Toxicity in ferret assessed as appearance of nausea-like behavior at 10 nmol/kg,po and measured for 4 hrs by behavioral analysis; design: species or system Mustela putorius furo; conditions: in vivo
[25] = Toxicity in ferret assessed as emetic response at 10 nmol/kg,po and measured for 4 hrs by behavioral analysis; design: species or system Mustela putorius furo; conditions: in vivo
[26] = Toxicity in pilocarpine hydrochloride induced salivation Sprague-Dawley rat model assessed as inhibition of salivary secretion at 3 mM,INH for 10 mins; conditions: Sprague-Dawley, in vivo, inhaled or intranasal, read-out: Activity
[27] = Rattus norvegicus, Sprague-Dawley, read-out: ED50

3',5'-cyclic-AMP phosphodiesterase 4B, sequence (Q07343 whole entry): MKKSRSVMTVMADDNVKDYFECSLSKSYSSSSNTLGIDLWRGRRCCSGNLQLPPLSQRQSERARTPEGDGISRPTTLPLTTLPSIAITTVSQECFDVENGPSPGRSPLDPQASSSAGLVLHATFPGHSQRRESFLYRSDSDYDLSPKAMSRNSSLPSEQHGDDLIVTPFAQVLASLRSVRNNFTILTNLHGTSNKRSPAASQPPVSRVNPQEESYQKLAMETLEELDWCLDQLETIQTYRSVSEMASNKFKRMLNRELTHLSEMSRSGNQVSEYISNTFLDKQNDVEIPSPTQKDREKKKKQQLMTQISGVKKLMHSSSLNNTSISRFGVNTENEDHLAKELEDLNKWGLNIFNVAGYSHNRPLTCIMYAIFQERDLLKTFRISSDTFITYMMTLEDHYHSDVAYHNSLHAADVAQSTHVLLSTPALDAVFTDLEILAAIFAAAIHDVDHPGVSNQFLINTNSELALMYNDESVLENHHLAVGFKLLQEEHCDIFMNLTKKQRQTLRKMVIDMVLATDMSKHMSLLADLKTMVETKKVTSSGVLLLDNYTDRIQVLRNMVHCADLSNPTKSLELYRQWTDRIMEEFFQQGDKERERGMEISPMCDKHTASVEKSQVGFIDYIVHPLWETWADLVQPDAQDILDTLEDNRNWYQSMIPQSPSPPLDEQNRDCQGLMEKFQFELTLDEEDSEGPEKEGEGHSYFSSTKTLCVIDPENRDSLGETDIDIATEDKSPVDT
Muscarinic acetylcholine receptor M3, sequence (P20309 whole entry): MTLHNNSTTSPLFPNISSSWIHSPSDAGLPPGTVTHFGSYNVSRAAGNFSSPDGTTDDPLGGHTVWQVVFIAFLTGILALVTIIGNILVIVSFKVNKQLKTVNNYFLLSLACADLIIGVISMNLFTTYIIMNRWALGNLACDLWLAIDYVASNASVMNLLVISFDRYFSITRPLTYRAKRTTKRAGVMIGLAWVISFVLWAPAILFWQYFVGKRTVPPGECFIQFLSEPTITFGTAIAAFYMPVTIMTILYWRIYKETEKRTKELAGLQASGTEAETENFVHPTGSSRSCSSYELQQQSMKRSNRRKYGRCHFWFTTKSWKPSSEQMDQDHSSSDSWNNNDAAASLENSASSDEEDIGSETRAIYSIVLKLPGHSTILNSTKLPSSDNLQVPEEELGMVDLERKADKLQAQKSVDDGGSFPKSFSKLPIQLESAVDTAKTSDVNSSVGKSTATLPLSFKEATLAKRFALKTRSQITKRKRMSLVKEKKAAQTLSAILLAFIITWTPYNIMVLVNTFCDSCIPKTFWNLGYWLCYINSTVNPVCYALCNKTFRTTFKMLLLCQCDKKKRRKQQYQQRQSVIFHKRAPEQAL

## CCOc1cc([C@H](Cc2c(Cl)c[n+]([O-])cc2Cl)OC(=O)c2ccc(CN[C@](CO)(C(=O)O[C@H]3CN4CCC3CC4)c3ccccc3)s2)ccc1OC
[1]
  Ki: 0.251 nM
Trachea
  IC50: 3.98 nM
[2]
  IC50: 0.631 nM
[3]
  IC50: 0.398 nM
Rattus norvegicus [4]; [27]
  ED50: 0.0031 µmol/kg
Rattus norvegicus [5]
  Activity: 89%
Rattus norvegicus [6]
  Activity: 82%
Rattus norvegicus [7]
  ED50: 0.024 µmol/kg
[8]
  Ratio ED50: 7.7

## COc1ccc([C@H](Cc2c(Cl)c[n+]([O-])cc2Cl)OC(=O)c2ccc(CN[C@@H](C(=O)O[C@H]3CN4CCC3CC4)c3ccccc3)s2)cc1OC
[1]
  Ki: 0.0631 nM
Trachea
  IC50: 1 nM
[2]
  IC50: 1.58 nM
[3]
  IC50: 1.58 nM
[9]
  half-life at 1 µM: 1.15 h
[10]
  half-life at 1 µM: 0.25 h
[11]
  half-life at 5 µM: 0.183 h
[12]
  half-life at 5 µM: 0.15 h
[13]
  microsomal CLint at 1 µM: 213 µL/min/mg
[14]; liver microsomes, read-out: CLH
  microsomal CLint at 1 µM: 126 µL/min/mg
Rattus norvegicus [4]; [27]
  ED50: 0.0007 µmol/kg
Rattus norvegicus [15]
  Activity: 74%
Rattus norvegicus [16]
  Activity: 67%
Rattus norvegicus [7]
  ED50: 0.03 µmol/kg
[8]
  Ratio ED50: 42
[17]
  IC50: 2 nM

## COc1ccc([C@H](Cc2c(Cl)c[n+]([O-])cc2Cl)OC(=O)c2ccc(CNC(C)(C(=O)O[C@H]3CN4CCC3CC4)c3ccccc3)s2)cc1OC (stereo in doubt; 1f)
[1]
  Ki: 0.2 nM
Trachea
  IC50: 2.51 nM
[2]
  IC50: 3.98 nM
[3]
  IC50: 15.8 nM
[9]
  half-life at 1 µM: 1.83 h
[10]
  t1/2: 4.67 h
[11]
  half-life at 5 µM: 2.9 h
[12]
  half-life at 5 µM: 1.43 h
[13]
  microsomal CLint at 1 µM: 470 µL/min/mg
[14]
  CLH: 481 µL/min/mg

## COc1ccc([C@H](Cc2c(Cl)c[n+]([O-])cc2Cl)OC(=O)c2ccc(CNC(C)(C(=O)O[C@H]3CN4CCC3CC4)c3ccccc3)s2)cc1OC (stereo in doubt; 1s)
[1]
  Ki: 0.158 nM
Trachea
  pIC50: 8.5
[2]
  IC50: 1.26 nM
[3]
  pIC50: 7.9
[9]
  t1/2: 2.08 h
[10]
  t1/2: 1.82 h
[11]; 3 h, 5 µM
  t1/2: 3.18 h
[12]
  t1/2: 0.983 h
[13]
  CLH: 481 µL/min/mg
[14]
  CLH: 48 µL/min/mg

## COc1ccc([C@H](Cc2c(Cl)c[n+]([O-])cc2Cl)OC(=O)c2ccc(CNC(CO)(C(=O)O[C@H]3CN4CCC3CC4)c3ccccc3)s2)cc1OC (stereo in doubt; 3f)
[1]
  Ki: 0.631 nM
Trachea
  pIC50: 7.4
[2]
  IC50: 0.631 nM
[3]
  IC50: 0.501 nM
[9]
  half-life at 1 µM: 1.32 h
[10]
  half-life at 1 µM: 1.37 h
[11]
  half-life at 5 µM: > 4 h
[12]
  half-life at 5 µM: 2.1 h
[13]
  microsomal CLint at 1 µM: 331 µL/min/mg
[14]
  CLH: 32 µL/min/mg
Rattus norvegicus [4]
  ED50: 0.0029 µmol/kg
Rattus norvegicus [18]
  Activity: 88%
Rattus norvegicus [19]
  Activity: 28%

## COc1ccc([C@H](Cc2c(Cl)c[n+]([O-])cc2Cl)OC(=O)c2ccc(CNC(CO)(C(=O)O[C@H]3CN4CCC3CC4)c3ccccc3)s2)cc1OC (stereo in doubt; 3s)
[1]
  Ki: 0.2 nM
Trachea
  pIC50: 8.4
[2]
  IC50: 0.501 nM
[3]
  pIC50: 9.2
[9]
  t1/2: 1.3 h
[10]
  t1/2: 1.38 h
[12]
  t1/2: 1.95 h
[13]
  CLH: 196 µL/min/mg
[14]
  CLH: 189 µL/min/mg
Rattus norvegicus [4]
  ED50: 0.0008 µmol/kg
Rattus norvegicus [5]
  Activity: 81%
Rattus norvegicus [6]
  Activity: 82%
Rattus norvegicus [7]
  ED50: 0.016 µmol/kg
[8]
  Ratio ED50: 20

## COc1ccc([C@H](Cc2c(Cl)c[n+]([O-])cc2Cl)OC(=O)c2ccc(CNC(CO)(C(=O)O[C@H]3CN4CCC3CC4)c3ccccc3)s2)cc1OCC1CC1 (stereo in doubt; 11f)
[1]
  Ki: 0.398 nM
Trachea
  pIC50: 7
[2]
  IC50: 0.794 nM
[3]
  IC50: 1.58 nM
Rattus norvegicus [4]; [27]
  ED50: 0.0079 µmol/kg
Rattus norvegicus [18]
  Activity: 80%

## C[C@@H]1C[C@H]2[C@@H]3C[C@H](F)C4=CC(=O)C=C[C@]4(C)[C@@]3(F)[C@@H](O)C[C@]2(C)[C@@]1(OC(=O)c1ccco1)C(=O)SCF [FLUTICASONE FUROATE]
Rattus norvegicus [20]
  Activity: >100%
Rattus norvegicus [21]
  Activity: >100%

## O=C(Nc1c(Cl)cncc1Cl)c1ccc(OC(F)F)c(OCC2CC2)c1 [ROFLUMILAST]
[22]
  Activity: Toxic
[23]
  Activity: Toxic
[24]
  Activity: Toxic
[25]
  Activity: Toxic

## C[N+]1(C)[C@@H]2C[C@@H](OC(=O)C(O)(c3cccs3)c3cccs3)C[C@H]1[C@@H]1O[C@@H]12 [TIOTROPIUM]
[26]
  inhibition at 10 min, 3000 µM: 62%
